Assay results as given in ChEMBL document CHEMBL1201862, “PubChem BioAssay data set” (2004).
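Step 1: Grow cells in 96-well plates. Step 2: Expose to compound for 48 hours at 5 concentrations. Step 3: Interpolate endpoints linearly; if unreached, use highest concentration. Here, GI50 denotes the concentration required for 50% inhibition of growth.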 Active and inactive are the calls of the source. Rule as the data show it: active = GI50 up to about 1.1 µM and inactive = higher.

Legend:
Assay in all cases: inhibition of tumour cell growth, NCI panel, 48 h
[1] = system: MDA-N
[2] = system: HCT-116
[3] = system: SK-MEL-5
[4] = system: SN12C
[5] = system: EKVX
[6] = system: OVCAR-5
[7] = system: NCI/ADR-RES
[8] = system: NCI-H226
[9] = system: CCRF-CEM
[10] = system: SK-OV-3
[11] = system: K562
[12] = system: OVCAR-8
[13] = system: TK-10
[14] = system: UO-31
[15] = system: ACHN
[16] = system: Malme-3M
[17] = system: UACC-257
[18] = system: COLO 205
[19] = system: LOX IMVI
[20] = system: MDA-MB-231

Row | SMILES | GI50 [1] | GI50 [2] | GI50 [3] | GI50 [4] | GI50 [5] | GI50 [6] | GI50 [7] | GI50 [8] | GI50 [9] | GI50 [10] | GI50 [11] | GI50 [12] | GI50 [13] | GI50 [14] | GI50 [15] | GI50 [16] | GI50 [17] | GI50 [18] | GI50 [19] | GI50 [20]
1 | CC(CC(C)(C)[N+](C)(C)C)[N+](C)(C)C (configuration not stated) | > 100 µM (inactive) | > 100 µM (inactive) | > 100 µM (inactive) | > 100 µM (inactive) | > 100 µM (inactive) | > 100 µM (inactive) | > 100 µM (inactive) | > 100 µM (inactive) | > 100 µM (inactive) | > 100 µM (inactive) | > 100 µM (inactive) | > 100 µM (inactive) | > 100 µM (inactive) | > 100 µM (inactive) | > 100 µM (inactive) | > 10 µM (inactive) | > 100 µM (inactive) | > 100 µM (inactive) |  | 
2 | O=C(Nc1cccc([N+](=O)[O-])c1)C(=O)C(C(=O)c1ccccc1-c1ccccc1)C1OC(=O)c2ccccc21 (configuration not stated) |  | 12.8 µM (inactive) | 16.2 µM (inactive) |  | 25.6 µM (inactive) | 22 µM (inactive) |  | 5.96 µM (inactive) | 22.9 µM (inactive) | 32.5 µM (inactive) | 28 µM (inactive) | 22.3 µM (inactive) | 30.4 µM (inactive) | 20.2 µM (inactive) | 35.6 µM (inactive) | 13.6 µM (inactive) | 20.1 µM (inactive) | 20 µM (inactive) | 17 µM (inactive) | 
3 | COc1cc2c(c3c1C=CCO3)C(=O)c1ccccc1C2=O |  | 33.3 µM (inactive) | 24.7 µM (inactive) | 43.9 µM (inactive) | > 100 µM (inactive) | > 100 µM (inactive) |  | 32.2 µM (inactive) | 22 µM (inactive) | > 100 µM (inactive) | 32.3 µM (inactive) | 40.8 µM (inactive) | 50.4 µM (inactive) | 29.5 µM (inactive) | 34.2 µM (inactive) | > 100 µM (inactive) | 25.3 µM (inactive) | 19.6 µM (inactive) | 28.6 µM (inactive) | 
4 | CN(C)CCOC1(Cc2ccc(Cl)cc2Cl)CCC(C(C)(C)C)CC1 (configuration not stated) |  | 1.95 µM (inactive) | 2.36 µM (inactive) | 1.73 µM (inactive) |  | 1.86 µM (inactive) | 1.47 µM (inactive) |  | 1.88 µM (inactive) | 10.5 µM (inactive) | 1.69 µM (inactive) | 1.63 µM (inactive) | 1.26 µM (inactive) |  | 2.27 µM (inactive) | 1.73 µM (inactive) | 1.11 µM (active) | 1.56 µM (inactive) | 1.78 µM (inactive) | 1.77 µM (inactive)
5 | O=C1c2ccccc2C(=O)N1CCc1ncc[nH]1 | > 100 µM (inactive) | > 100 µM (inactive) | > 100 µM (inactive) | > 100 µM (inactive) | > 100 µM (inactive) | > 100 µM (inactive) | > 100 µM (inactive) |  | > 100 µM (inactive) |  | > 100 µM (inactive) | > 100 µM (inactive) | > 100 µM (inactive) | > 100 µM (inactive) | > 100 µM (inactive) |  | > 100 µM (inactive) | > 100 µM (inactive) | > 100 µM (inactive) | 
6 | CCOC(=O)C(NC(=O)c1cccc(Cl)c1)(Nc1ccc(S(=O)(=O)Nc2cc(C)nc(C)n2)cc1)C(F)(F)F (configuration not stated) |  | > 100 µM (inactive) | > 100 µM (inactive) | > 100 µM (inactive) | > 100 µM (inactive) | > 100 µM (inactive) | > 100 µM (inactive) | > 100 µM (inactive) | > 100 µM (inactive) | > 100 µM (inactive) |  | > 100 µM (inactive) | > 100 µM (inactive) | > 100 µM (inactive) | > 100 µM (inactive) | > 100 µM (inactive) | > 100 µM (inactive) | > 100 µM (inactive) | > 100 µM (inactive) | > 100 µM (inactive)
7 | COc1cc2c(cc1O)NC(=O)[C@@H]1C[C@@H](O)CN1C2=O |  | 49 µM (inactive) | 58.1 µM (inactive) | > 100 µM (inactive) | > 100 µM (inactive) | > 100 µM (inactive) | 11.4 µM (inactive) | > 100 µM (inactive) | 28.4 µM (inactive) | > 100 µM (inactive) | 57.7 µM (inactive) | 98.2 µM (inactive) | > 100 µM (inactive) | 64.4 µM (inactive) | 74.6 µM (inactive) | > 100 µM (inactive) | > 100 µM (inactive) | > 100 µM (inactive) | 40.2 µM (inactive) | > 100 µM (inactive)
8 | COC(=O)C(C#CCCCCC#CC(NC(=O)OCc1ccccc1)(C(=O)OC)C(F)(F)F)(NC(=O)OCc1ccccc1)C(F)(F)F (configuration not stated) |  | 97.9 µM (inactive) | > 100 µM (inactive) | > 100 µM (inactive) | > 100 µM (inactive) | > 100 µM (inactive) |  | > 100 µM (inactive) | > 100 µM (inactive) | > 100 µM (inactive) | 8.38 µM (inactive) | > 100 µM (inactive) | > 100 µM (inactive) | 7.45 µM (inactive) | > 100 µM (inactive) | > 100 µM (inactive) | > 100 µM (inactive) | > 100 µM (inactive) | > 100 µM (inactive) | 
